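Step 1: Grow cells in 96-well plates. Step 2: Expose to compound for 48 hours at 5 concentrations. Step 3: Interpolate endpoints linearly; if unreached, use highest concentration. GI50: concentration for 50% inhibition of growth.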 Activity calls are given as the source filed them. No stated cut-off is given here; in the data, active = GI50 up to about 1.1 µM and inactive = higher.
Experiments:
Assay in all cases: NCI tumour cell line growth inhibition, 48 h
NCI/ADR-RES = tested on: NCI/ADR-RES
UACC-257 = tested on: UACC-257
DMS-114 = tested on: DMS-114
MCF7 = tested on: MCF7
K562 = tested on: K562
HOP-92 = tested on: HOP-92
HOP-62 = tested on: HOP-62
MOLT-4 = tested on: MOLT-4
EKVX = tested on: EKVX
SK-MEL-28 = tested on: SK-MEL-28
HCT-116 = tested on: HCT-116
SF-268 = tested on: SF-268
SF-539 = tested on: SF-539
HCC 2998 = tested on: HCC 2998
SF-295 = tested on: SF-295
COLO 205 = tested on: COLO 205
SK-OV-3 = tested on: SK-OV-3
RXF 393 = tested on: RXF 393
NCI-H460 = tested on: NCI-H460
NCI-H23 = tested on: NCI-H23
Malme-3M = tested on: Malme-3M
KM12 = tested on: KM12
UO-31 = tested on: UO-31
SK-MEL-2 = tested on: SK-MEL-2
OVCAR-5 = tested on: OVCAR-5
U-251 = tested on: U-251
HL-60 = tested on: HL-60
DLD-1 = tested on: DLD-1
UACC-62 = tested on: UACC-62
HCT-15 = tested on: HCT-15
XF498 = tested on: XF498
DMS-273 = tested on: DMS-273
NCI-H226 = tested on: NCI-H226
IGROV-1 = tested on: IGROV-1
SN12C = tested on: SN12C
KM-20L2 = tested on: KM-20L2
LOX IMVI = tested on: LOX IMVI
OVCAR-4 = tested on: OVCAR-4
CCRF-CEM = tested on: CCRF-CEM
HT-29 = tested on: HT-29
A498 = tested on: A498
NCI-H522 = tested on: NCI-H522
A549 = tested on: A549
OVCAR-8 = tested on: OVCAR-8
SK-MEL-5 = tested on: SK-MEL-5
SNB-75 = tested on: SNB-75
SW-620 = tested on: SW-620
OVCAR-3 = tested on: OVCAR-3
M19-MEL = tested on: M19-MEL
RPMI-8226 = tested on: RPMI-8226
SNB-19 = tested on: SNB-19
HOP-18 = tested on: HOP-18
SNB-78 = tested on: SNB-78
PC-3 = tested on: PC-3
SR = tested on: SR
T47D = tested on: T47D
786-0 = tested on: 786-0
MDA-MB-231 = tested on: MDA-MB-231
DU-145 = tested on: DU-145
CAKI-1 = tested on: CAKI-1
TK-10 = tested on: TK-10
MDA-N = tested on: MDA-N
BT-549 = tested on: BT-549
Hs-578T = tested on: Hs-578T
ACHN = tested on: ACHN
M14 = tested on: M14
MDA-MB-435 = tested on: MDA-MB-435

`O=C(NCCCCCCNC(=O)n1cc(F)c(=O)[nH]c1=O)NCCCOCCOCCCNC(=O)C(O)C(O)C(O)C(O)CO` (centres undefined) was tested, and the GI50 (NCI/ADR-RES) was > 2.5 µM (inactive), the GI50 (UACC-257) was > 2.5 µM (inactive) and the GI50 (DMS-114) was > 2.5 µM (inactive). The GI50 (MCF7) was > 2.27 µM (inactive), the GI50 (K562) was > 2.5 µM (inactive) and the GI50 (HOP-92) was > 2.5 µM (inactive). For the same compound, the GI50 (HOP-62) was > 2.5 µM (inactive), the GI50 (MOLT-4) was > 2.5 µM (inactive) and the GI50 (EKVX) was > 2.5 µM (inactive). For the same compound, the GI50 (SK-MEL-28) was > 2.5 µM (inactive), the GI50 (HCT-116) was > 2.05 µM (inactive) and the GI50 (SF-268) was > 2.5 µM (inactive). For the same compound, the GI50 (SF-539) was > 1.84 µM (inactive), the GI50 (HCC 2998) was 0.152 µM (active) and the GI50 (SF-295) was > 2.5 µM (inactive). The GI50 (COLO 205) was > 2.5 µM (inactive), the GI50 (SK-OV-3) was > 2.5 µM (inactive) and the GI50 (RXF 393) was > 2.5 µM (inactive). The GI50 (NCI-H460) was 1.51 µM (inactive), the GI50 (NCI-H23) was > 2.5 µM (inactive) and the GI50 (Malme-3M) was > 1.53 µM (inactive). For the same compound, the GI50 (KM12) was > 2.5 µM (inactive), the GI50 (UO-31) was > 2.3 µM (inactive) and the GI50 (SK-MEL-2) was > 2.5 µM (inactive). The GI50 (OVCAR-5) was > 2.5 µM (inactive), the GI50 (U-251) was > 2.5 µM (inactive) and the GI50 (HL-60) was > 2.29 µM (inactive). For the same compound, the GI50 (DLD-1) was 2.44 µM (inactive), the GI50 (UACC-62) was > 2.5 µM (inactive) and the GI50 (HCT-15) was 2.43 µM. The GI50 (XF498) was > 2.5 µM (inactive), the GI50 (DMS-273) was > 2.5 µM (inactive) and the GI50 (NCI-H226) was > 2.5 µM (inactive). For the same compound, the GI50 (IGROV-1) was > 2.5 µM (inactive), the GI50 (SN12C) was > 2.5 µM (inactive) and the GI50 (KM-20L2) was > 2.5 µM (inactive). For the same compound, the GI50 (LOX IMVI) was > 2.16 µM (inactive), the GI50 (OVCAR-4) was > 2.5 µM (inactive) and the GI50 (CCRF-CEM) was > 2.5 µM (inactive). The GI50 (HT-29) was > 2.32 µM (inactive), the GI50 (A498) was > 2.5 µM (inactive) and the GI50 (NCI-H522) was > 2.5 µM (inactive). For the same compound, the GI50 (A549) was > 2.05 µM (inactive), the GI50 (OVCAR-8) was > 2.5 µM (inactive) and the GI50 (SK-MEL-5) was > 2.5 µM (inactive). For the same compound, the GI50 (SNB-75) was > 2.5 µM (inactive), the GI50 (SW-620) was > 2.5 µM (inactive) and the GI50 (OVCAR-3) was > 2.5 µM (inactive). For the same compound, the GI50 (M19-MEL) was > 2.5 µM (inactive), the GI50 (RPMI-8226) was > 2.5 µM (inactive) and the GI50 (SNB-19) was > 2.5 µM (inactive). For the same compound, the GI50 (HOP-18) was > 2.5 µM (inactive) and the GI50 (SNB-78) was > 2.5 µM (inactive).

For `CC1=C2C(=CO[C@H](C)[C@H]2C)C(O)=C(C(=O)O)C1=O` [CITRININ], the GI50 (PC-3) was 32 µM (inactive), the GI50 (SR) was 15.6 µM (inactive) and the GI50 (NCI/ADR-RES) was 43.8 µM (inactive). For the same compound, the GI50 (UACC-257) was 29.7 µM (inactive), the GI50 (DMS-114) was 11.5 µM (inactive) and the GI50 (MCF7) was 15.7 µM (inactive). The GI50 (T47D) was 29.2 µM (inactive), the GI50 (K562) was 15.3 µM (inactive) and the GI50 (HOP-92) was 25.1 µM (inactive). The GI50 (HOP-62) was 17.1 µM (inactive), the GI50 (MOLT-4) was 13.1 µM (inactive) and the GI50 (EKVX) was 18.7 µM (inactive). The GI50 (SK-MEL-28) was 31.8 µM (inactive), the GI50 (HCT-116) was 25.8 µM (inactive) and the GI50 (SF-268) was 7 µM (inactive). The GI50 (SF-539) was 12.3 µM (inactive), the GI50 (HCC 2998) was 19.1 µM (inactive) and the GI50 (786-0) was 24.5 µM (inactive). The GI50 (SF-295) was 35.8 µM (inactive), the GI50 (COLO 205) was 33.9 µM (inactive) and the GI50 (SK-OV-3) was 71.8 µM (inactive). The GI50 (MDA-MB-231) was 23.2 µM (inactive), the GI50 (RXF 393) was 13.2 µM (inactive) and the GI50 (DU-145) was 24.2 µM (inactive). The GI50 (NCI-H23) was 20.5 µM (inactive), the GI50 (Malme-3M) was 50.1 µM (inactive) and the GI50 (KM12) was 26.9 µM (inactive). For the same compound, the GI50 (UO-31) was 48.3 µM (inactive), the GI50 (SK-MEL-2) was 16.3 µM (inactive) and the GI50 (CAKI-1) was 27.3 µM (inactive). The GI50 (OVCAR-5) was 59.8 µM (inactive), the GI50 (U-251) was 14.6 µM (inactive) and the GI50 (HL-60) was 11.1 µM (inactive). The GI50 (DLD-1) was 18.2 µM (inactive), the GI50 (UACC-62) was 20.3 µM (inactive) and the GI50 (HCT-15) was 16.9 µM. For the same compound, the GI50 (XF498) was 5.55 µM (inactive), the GI50 (DMS-273) was 44 µM (inactive) and the GI50 (NCI-H226) was 23.3 µM (inactive). The GI50 (IGROV-1) was 18.6 µM (inactive), the GI50 (TK-10) was 24.5 µM (inactive) and the GI50 (SN12C) was 21.7 µM (inactive). The GI50 (KM-20L2) was 23.8 µM (inactive), the GI50 (LOX IMVI) was 16.3 µM (inactive) and the GI50 (OVCAR-4) was 32.9 µM (inactive). The GI50 (CCRF-CEM) was 14.8 µM (inactive), the GI50 (HT-29) was 33.9 µM (inactive) and the GI50 (A498) was 0.782 µM (active). For the same compound, the GI50 (MDA-N) was 26.2 µM (inactive), the GI50 (NCI-H522) was 12.4 µM (inactive) and the GI50 (A549) was 70.5 µM (inactive). The GI50 (BT-549) was 13.3 µM (inactive), the GI50 (Hs-578T) was 27.5 µM (inactive) and the GI50 (ACHN) was 21 µM (inactive). For the same compound, the GI50 (OVCAR-8) was 13.2 µM (inactive), the GI50 (SK-MEL-5) was 12.8 µM (inactive) and the GI50 (SNB-75) was 32.6 µM (inactive). The GI50 (SW-620) was 20.6 µM (inactive), the GI50 (M14) was 23 µM (inactive) and the GI50 (OVCAR-3) was 16.7 µM (inactive). The GI50 (M19-MEL) was 24.5 µM (inactive), the GI50 (RPMI-8226) was 15.8 µM (inactive) and the GI50 (MDA-MB-435) was 27 µM (inactive). The GI50 (SNB-19) was 21.9 µM (inactive), the GI50 (HOP-18) was 15.2 µM (inactive) and the GI50 (SNB-78) was 11.2 µM (inactive).
